Source: PMC7466635, “Identification of Quinazolinone Analogs Targeting CDK5 Kinase Activity and Glioblastoma Cell Proliferation” (Frontiers in Chemistry, 2020)
Read-outs that look alike come from different tables or passages of the source.

How the values were obtained:
[1] = target: T1, CDK5 (Homo sapiens, UniProt Q00535); assay: biochemical
[2] = target: T1, CDK5; assay: biochemical; remark: listed apart in the source
[3] = target: T1, CDK5; assay: CDKACT5-Cy5 fluorescent kinase activity biosensor with U87 cell extract; residual activity at […], IC50 not fittable; assay type: cell-based; conditions: U-87 MG

T1 sequence (Q00535 whole entry): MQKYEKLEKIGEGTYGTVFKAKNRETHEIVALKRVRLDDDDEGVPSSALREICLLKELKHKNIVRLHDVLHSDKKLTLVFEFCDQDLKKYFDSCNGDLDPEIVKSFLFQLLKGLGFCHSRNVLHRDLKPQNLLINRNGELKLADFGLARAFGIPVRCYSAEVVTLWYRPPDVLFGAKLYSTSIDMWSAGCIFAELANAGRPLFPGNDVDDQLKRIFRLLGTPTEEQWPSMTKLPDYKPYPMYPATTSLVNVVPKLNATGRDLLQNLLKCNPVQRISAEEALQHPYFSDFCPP
T1 sequence (Q15078 2-307 partner): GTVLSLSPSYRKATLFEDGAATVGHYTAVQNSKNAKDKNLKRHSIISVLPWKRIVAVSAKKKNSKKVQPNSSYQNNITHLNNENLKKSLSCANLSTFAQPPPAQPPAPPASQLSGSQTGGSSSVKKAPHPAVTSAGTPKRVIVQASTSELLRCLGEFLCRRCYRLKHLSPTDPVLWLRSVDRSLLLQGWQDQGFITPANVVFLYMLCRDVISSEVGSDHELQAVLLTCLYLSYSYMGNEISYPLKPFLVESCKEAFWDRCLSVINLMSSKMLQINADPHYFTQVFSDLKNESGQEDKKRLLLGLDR

Compound | IC50 [1] | IC50 [2] | other results
Nc1ccc2[nH]c(SCc3nc4ccccc4c(=O)n3-c3ccc(Br)cc3)nc2c1 [5l, JMV5889] | 28.7 ± 51.2 µM |  | 
Cc1ccc2c(=O)n(-c3ccccc3)c(CSc3nc4cc(N)ccc4[nH]3)nc2c1 [5p, JMV5735] | 9.35 ± 11.1 µM |  | 
Nc1ccc2[nH]c(SCc3nc4ccccc4c(=O)n3-c3ccccc3)nc2c1 [5d, JMV5800] |  | 8.29 ± 3.56 µM | 
Nc1ccc2[nH]c(SCc3nc4ccccc4c(=O)n3-c3cccc(C(F)(F)F)c3)nc2c1 [5a, JMV5798] |  |  | activity at 100 µM [3]: 40.2 ± 2.4%
Nc1ccc2[nH]c(SCc3nc4ccccc4c(=O)n3-c3cccc(Cl)c3)nc2c1 [5m, JMV5884] |  | 7.6 ± 3.8 µM | 
Nc1ccc2[nH]c(SCc3nc4ccccc4c(=O)n3-c3ccccc3Br)nc2c1 [5j, JMV5886] | 24.4 ± 32.5 µM |  | 
